Experiments:
[1] = system: Tribolium castaneum; assay: Feeding deterrent activity against Tribolium castaneum (red flour beetle) adults using wheat flour assessed as consumption of diet at 1000 ppm measured after 3 days relative to untreated control; assay type: functional
[2] = system: Tribolium castaneum; assay: Feeding deterrent activity against Tribolium castaneum (red flour beetle) adults using wheat flour assessed as consumption of diet at 10 ppm measured after 3 days relative to untreated control; assay type: functional
[3] = system: Tribolium castaneum; assay: Feeding deterrent activity against Tribolium castaneum (red flour beetle) adults using wheat flour assessed as consumption of diet at 100 ppm measured after 3 days relative to untreated control; assay type: functional
[4] = system: Tribolium castaneum; assay: Feeding deterrent activity against Tribolium castaneum (red flour beetle) adults using wheat flour assessed as consumption of diet at 30 ppm measured after 3 days relative to untreated control; assay type: functional
[5] = system: Tribolium castaneum; assay: Feeding deterrent activity against Tribolium castaneum (red flour beetle) adults using wheat flour assessed as consumption of diet at 300 ppm measured after 3 days relative to untreated control; assay type: functional
[6] = system: Tribolium castaneum; assay: Feeding deterrent activity against Tribolium castaneum (red flour beetle) adults using wheat flour assessed as inhibition of insect feeding measured after 3 days; assay type: functional, organism-based
[7] = Toxicity in ip dosed Mus musculus (mouse); assay type: organism-based; conditions: in vivo
[8] = Toxicity in iv dosed Mus musculus (mouse); assay type: organism-based; conditions: in vivo
[9] = Toxicity in po dosed Mus musculus (mouse); assay type: organism-based; conditions: in vivo

Row | SMILES | Activity [1] [%] | Activity [2] [%] | Activity [3] [%] | Activity [4] [%] | Activity [5] [%] | EC50 [6] [ppm] | LD50 [7] [mg/kg] | LD50 [8] [mg/kg] | LD50 [9] [mg/kg]
1 | CCN1C[C@]2(COC)CC[C@H](OC)[C@]34C1[C@H]([C@H](OC)[C@H]23)[C@@]1(O)C[C@H](OC)[C@H]2C[C@@H]4[C@@H]1[C@H]2O [CHASMANINE] | 53.29 | 90.55 | 61.64 | 72.47 | 69.59 |  |  |  | 
2 | CCN1C[C@]2(COC)CC[C@H](OC)[C@]34C1[C@H]([C@H](OC)[C@H]23)[C@@]1(OC(C)=O)C[C@H](OC)[C@@]2(O)C[C@@H]4[C@@H]1[C@H]2OC(=O)c1ccc(OC)cc1 [CRASSICAULINE A] | 39.59 | 97.81 | 78.36 | 89.73 | 53.83 | 1134.5 |  |  | 
3 | CCN1C[C@]2(C)CC[C@H](O)[C@@]34C5C[C@@H]6[C@@H](OC)C[C@@](O)(C5[C@H]6O)[C@@H](CC23)C14 (some centres not stated) [KARACOLINE] | 43.84 | 92.96 | 65.07 | 77.95 | 54.66 | 395.2 | 298 | 51.5 | 
4 | CCN1C[C@]2(C)CC[C@H](OC)[C@]34C1[C@H](C[C@H]23)[C@@]1(O)C[C@H](OC)[C@H]2C[C@@H]4[C@@H]1[C@H]2O [SACHACONITINE] | 38.08 | 93.97 | 62.19 | 71.78 | 53.7 | 427.8 |  |  | 
5 | CCN1C[C@]2(COC)CC[C@H](OC)[C@]34C1[C@H](C[C@H]23)[C@@]1(O)C[C@H](OC)[C@H]2C[C@@H]4[C@@H]1[C@H]2O [TALATISAMINE] | 48.77 | 92.47 | 60.82 | 75.89 | 58.63 | 342.8 |  |  | 
6 | CC(=O)O[C@@H]1C[C@H](O)[C@@]23CO[C@@H](O)[C@]1(C)[C@@H]2C[C@@H](O)[C@]1(C)[C@@H]3C(=O)[C@H](OC(C)=O)[C@@]2(C)[C@H](c3ccoc3)C[C@H]3O[C@]321 [TOOSENDANIN] |  |  |  |  |  | 94.3 |  |  | 
7 | CCN1C[C@]2(COC)[C@H](O)C[C@H](OC)[C@]34C1[C@H]([C@H](OC)[C@H]23)[C@@]1(OC(C)=O)C[C@H](OC)[C@@]2(O)C[C@@H]4[C@@H]1[C@H]2OC(=O)c1ccc(OC)cc1 [YUNACONITINE] |  | 96.75 | 68.37 | 85.48 |  | 654.3 |  |  | 2.97

Reference: ChEMBL document CHEMBL3044959, “Feeding deterrents from Aconitum episcopale roots against the red flour beetle, Tribolium castaneum” (J Agric Food Chem, 2011)
